Measurements published in patent US11884659B1, “1-cyclopropyl-6-fluoro-4-oxo-7-(4-((5-(quinolin-2-ylmethyleneamino)-2-thioxo-1,3,4- thiadiazol-3(2H)-yl)methyl) piperazin-1-yl)-1,4-dihydroquinoline-3-carboxylic acid as an anti-inflammatory compound” (KING FAISAL UNIVERSITY, priority 2023, dated 2024).

Assays:
BSA = BSA (Bos taurus, UniProt P02769); experiment: Bovine Serum Albumin Assay (BSA), inhibition of heat-induced protein denaturation; details: 20, 40, 60, 80 and 100 μg/mL; 0.4% w/v BSA, pH 6.4, 72° C. for 10 minutes; turbidity at 660 nm
Protocol: Bovine Serum Albumin Assay (BSA)
In vitro-inflammatory activities of the tested samples were determined using a modified method of the BSA assay reported by Williams et al. BSA solution (0.4%, w/v) was prepared in Tris Buffered Saline. The pH was adjusted to 6.4 with glacial acetic acid. Different dilutions of 20, 40, 60, 80, and 100 μg/mL of 1-cyclopropyl-6-fluoro-4-oxo-7-(4-((5-(quinolin-2-ylmethyleneamino)-2-thioxo-1,3,4-thiadiazol-3(2H)-yl)methyl)piperazin-1-yl)-1,4-dihydroquinoline-3-carboxylic acid (IV) the stock solutions were added to test tubes containing 1 mL of 0.4%, w/v BSA buffer solution. Both negative (solvent) and positive (aspirin) controls were assayed in a similar manner. The solutions were then heated in a water bath at 72° C. for 10 minutes and cooled for 20 minutes under laboratory conditions. The turbidity of the solutions (level of protein precipitation) was measured at 660 nm in Spectrophotometer (V-770 UV-Visible/NIR Spectrophotometer). The percentage inhibition of precipitation (protein denaturation) was determined relative to the negative control using the following equation:
[formula] [formula] Anti-Inflammatory Activity

BSA, sequence (P02769 25-607): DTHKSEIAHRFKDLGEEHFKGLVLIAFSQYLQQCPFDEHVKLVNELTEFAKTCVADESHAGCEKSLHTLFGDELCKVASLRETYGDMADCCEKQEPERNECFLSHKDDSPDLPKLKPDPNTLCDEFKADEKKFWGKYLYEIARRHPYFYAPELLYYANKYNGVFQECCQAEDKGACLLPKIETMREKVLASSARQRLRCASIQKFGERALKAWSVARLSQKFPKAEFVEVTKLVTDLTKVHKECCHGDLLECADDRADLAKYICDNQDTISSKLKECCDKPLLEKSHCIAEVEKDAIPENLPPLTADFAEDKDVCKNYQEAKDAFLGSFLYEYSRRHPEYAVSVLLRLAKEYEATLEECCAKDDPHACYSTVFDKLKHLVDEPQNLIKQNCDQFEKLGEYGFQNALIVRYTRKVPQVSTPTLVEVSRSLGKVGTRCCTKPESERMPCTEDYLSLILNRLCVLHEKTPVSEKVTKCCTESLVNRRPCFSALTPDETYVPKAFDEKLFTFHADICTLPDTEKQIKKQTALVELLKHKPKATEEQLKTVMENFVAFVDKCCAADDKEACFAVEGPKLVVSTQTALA

- melting point: 232 to 235 °C
- in vitro anti-inflammatory activity (inhibition of protein denaturation) (BSA): considerable anti-inflammatory effect
SMILES: O=C(O)c1cn(C2CC2)c2cc(N3CCN(Cn4nc(/N=C/c5ccc6ccccc6n5)sc4=S)CC3)c(F)cc2c1=O [IV, 1-cyclopropyl-6-fluoro-4-oxo-7-(4-((5-(quinolin-2-ylmethyleneamino)-2-thioxo-1,3,4-thiadiazol-3(2H)-yl)methyl)piperazin-1-yl)-1,4-dihydroquinoline-3-carboxylic acid]
